# Measured values taken from article PMC7549094 (Journal of Medicinal Chemistry, 2020).
# Like-named read-outs stand apart in the source and are kept apart here.
# Assays:
# hr PDE4D = hr PDE4D (Homo sapiens, UniProt Q08499); assay: receptor profile (Table S4); format: biochemical
# PXR = PXR (Homo sapiens, UniProt O75469); assay: receptor profile (Table S4); details: human
# hr PXR ag = hr PXR ag (Homo sapiens, UniProt O75469); assay: receptor profile (Table S4); details: hr PXR ag
# CYP2D15 = CYP2D15 (Canis lupus familiaris, UniProt Q29473); details: panel of dog recombinant CYP enzymes; 1 µM, 30 min
# hr 5-HT1A ag = target: T1, hr 5-HT1A ag (Homo sapiens, UniProt P08908); assay: receptor profile (Table S4); format: biochemical
# T1 sequence (P08908 1-422): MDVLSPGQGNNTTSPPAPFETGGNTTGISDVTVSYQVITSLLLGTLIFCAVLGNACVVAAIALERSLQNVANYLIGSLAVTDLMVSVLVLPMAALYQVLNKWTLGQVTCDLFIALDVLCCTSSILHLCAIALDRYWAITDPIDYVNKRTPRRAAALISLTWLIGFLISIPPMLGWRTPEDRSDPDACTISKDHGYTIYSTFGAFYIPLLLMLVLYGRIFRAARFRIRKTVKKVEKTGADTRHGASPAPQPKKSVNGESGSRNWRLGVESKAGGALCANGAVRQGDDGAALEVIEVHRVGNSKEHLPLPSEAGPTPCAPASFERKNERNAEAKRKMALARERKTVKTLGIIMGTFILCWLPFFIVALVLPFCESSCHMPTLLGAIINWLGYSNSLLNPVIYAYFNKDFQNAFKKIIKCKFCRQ
# hr 5-HT2A antag = hr 5-HT2A antag (Homo sapiens, UniProt P28223); assay: receptor profile (Table S4); format: biochemical
# hr ERa ag = hr ERa ag (Homo sapiens, UniProt P03372); assay: receptor profile (Table S4); format: biochemical
# hr OpM = hr OpM (Homo sapiens, UniProt P35372); assay: receptor profile (Table S4); format: binding
# rVMAT2 uptake = rVMAT2 uptake (Rattus norvegicus, UniProt Q01827); assay: receptor profile (Table S4); format: biochemical
# hr Beta1 = hr Beta1 (Homo sapiens, UniProt P08588); assay: receptor profile (Table S4); format: binding
# hr TP antag = target: T2, hr TP antag (Homo sapiens, UniProt P21731); assay: receptor profile (Table S4); format: biochemical
# T2 sequence (P21731 1-343): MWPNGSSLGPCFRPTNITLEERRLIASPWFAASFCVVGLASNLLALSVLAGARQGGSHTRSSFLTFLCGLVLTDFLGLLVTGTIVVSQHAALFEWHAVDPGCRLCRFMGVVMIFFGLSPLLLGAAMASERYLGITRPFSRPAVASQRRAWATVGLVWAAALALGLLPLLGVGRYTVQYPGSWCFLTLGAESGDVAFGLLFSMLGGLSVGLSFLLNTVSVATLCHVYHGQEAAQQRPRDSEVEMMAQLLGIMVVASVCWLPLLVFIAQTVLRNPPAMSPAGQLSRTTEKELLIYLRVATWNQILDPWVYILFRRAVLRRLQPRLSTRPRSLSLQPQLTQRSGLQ
# [1] = target: T3, purified L. donovani proteasome (Leishmania donovani, UniProt A0A3Q8IIY4+A0A3S7XA80); assay: chymotrypsin-like activity of purified L. donovani proteasome; format: biochemical; details: half-maximum inhibition of chymotrypsin-like activity of purified L. donovani proteasome; mean, n = 4 technical replicates
# T3 sequence (A0A3Q8IIY4 100-302): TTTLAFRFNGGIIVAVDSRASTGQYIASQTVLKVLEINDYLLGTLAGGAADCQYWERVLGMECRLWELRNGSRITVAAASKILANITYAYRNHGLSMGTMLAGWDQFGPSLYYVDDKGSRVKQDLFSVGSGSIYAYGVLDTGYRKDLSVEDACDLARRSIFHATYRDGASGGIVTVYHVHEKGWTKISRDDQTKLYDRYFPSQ
# T3 sequence (A0A3S7XA80 1-206): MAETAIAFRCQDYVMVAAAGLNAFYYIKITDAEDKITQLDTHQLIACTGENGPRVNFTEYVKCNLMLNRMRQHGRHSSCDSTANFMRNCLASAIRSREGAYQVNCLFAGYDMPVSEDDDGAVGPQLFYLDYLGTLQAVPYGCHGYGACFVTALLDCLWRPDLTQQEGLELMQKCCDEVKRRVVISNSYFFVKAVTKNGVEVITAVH
# [2] = target: wild-type (PSMB4^WT) L. tarentolae proteasome (Leishmania tarentolae, UniProt A0A640KTY7+A0A640KW57); assay: chymotrypsin-like activity of purified wild-type L. tarentolae proteasome; format: biochemical; details: n = 3 technical replicates
# BSEP = BSEP (Homo sapiens, UniProt O95342); assay: receptor profile (Table S4), first BSEP line
# hr 5-HT2B antag = hr 5-HT2B antag (Homo sapiens, UniProt P41595); assay: receptor profile (Table S4); format: biochemical
# in vitro AMES = format: cell-based
# hr H3 = hr H3 (Homo sapiens, UniProt Q9Y5N1); assay: receptor profile (Table S4); format: binding
# [3] = Balb/C mice, 20 mg/kg PO; dose-normalized
# Experimental: In Vivo PK Studies in Mice.
# The solution was filtered using a 0.45 m syringe filter before dosing. Two male Balb/c mice were administered 1 intravenously via the lateral tail
# vein at 5 mg/kg with a dose volume of 2.0 mL/kg. 1 was also formulated in a suspension of 0.5%
# methylcellulose with 0.5% Tween 80 (0.5% MC/0.5% Tw80) in water at 2.5 mg/mL. A group of mice
# (n=3) were administered 1 orally via gavage at 20 mg/kg with a dose volume of 8.0 mL/kg.
# The mouse blood samples were centrifuged to separate plasma and the plasma samples were frozen at -
# In Vivo PK Studies in Rats.
# Two male Wistar rats were administered
# 1 intravenously via the lateral tail vein at 3 mg/kg with a dose volume of 1.0 mL/kg. 1 was also formulated
# in a suspension of 0.5% methylcellulose with 0.5% Tween 80 (0.5% MC/0.5% Tw80) in water at 2.0
# mg/mL. The second group of rats (n=3) were administered 1 orally via gavage at 10 mg/kg in suspension
# with a dose volume of 5.0 mL/kg. Six blood samples of 100 μL each were collected serially from each
# animal via the saphenous vein up to 24 hours after dosing. The rat blood samples were centrifuged to
# separate plasma and the plasma samples were frozen at -20°C until analysis.
# In Vivo PK Studies in Dogs.
# The solution was filtered using a 0.45 m syringe filter before dosing. Three male Beagle dogs were administered 1 intravenously via saphenous
# vein at 0.3 mg/kg with a dose volume of 0.1 mL/kg. 1 was also formulated in a suspension of 0.5%
# methylcellulose with 0.5% Tween 80 (0.5%MC/0.5% Tween 80) in water at 1.0 mg/mL. The second
# group of male dogs (n=2) were administered 1- orally via gavage at 1.0 mg/kg with a dose volume of 1.0
# mL/kg. Seven blood samples of 250 µL each were collected serially from each animal via the jugular vein
# The dog blood samples were centrifuged to separate plasma and the plasma
# samples were frozen at -20 °C until analysis.
# hr D2 = hr D2 (Homo sapiens, UniProt P14416); assay: receptor profile (Table S4); format: binding
# hr D2, sequence (P14416 whole entry): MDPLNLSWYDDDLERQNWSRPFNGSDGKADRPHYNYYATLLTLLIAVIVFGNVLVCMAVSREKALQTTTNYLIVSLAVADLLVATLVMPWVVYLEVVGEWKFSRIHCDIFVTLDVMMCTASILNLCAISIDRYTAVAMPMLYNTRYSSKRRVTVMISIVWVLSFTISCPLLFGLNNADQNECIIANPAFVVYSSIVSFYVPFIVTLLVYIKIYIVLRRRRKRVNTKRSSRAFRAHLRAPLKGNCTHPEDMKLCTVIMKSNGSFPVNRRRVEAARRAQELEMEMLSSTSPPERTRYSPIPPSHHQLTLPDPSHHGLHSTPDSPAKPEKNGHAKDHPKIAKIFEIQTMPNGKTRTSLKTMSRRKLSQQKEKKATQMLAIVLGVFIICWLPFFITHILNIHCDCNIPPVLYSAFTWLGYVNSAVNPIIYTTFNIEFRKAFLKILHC
# hr 5-HT2B antag, sequence (P41595 whole entry): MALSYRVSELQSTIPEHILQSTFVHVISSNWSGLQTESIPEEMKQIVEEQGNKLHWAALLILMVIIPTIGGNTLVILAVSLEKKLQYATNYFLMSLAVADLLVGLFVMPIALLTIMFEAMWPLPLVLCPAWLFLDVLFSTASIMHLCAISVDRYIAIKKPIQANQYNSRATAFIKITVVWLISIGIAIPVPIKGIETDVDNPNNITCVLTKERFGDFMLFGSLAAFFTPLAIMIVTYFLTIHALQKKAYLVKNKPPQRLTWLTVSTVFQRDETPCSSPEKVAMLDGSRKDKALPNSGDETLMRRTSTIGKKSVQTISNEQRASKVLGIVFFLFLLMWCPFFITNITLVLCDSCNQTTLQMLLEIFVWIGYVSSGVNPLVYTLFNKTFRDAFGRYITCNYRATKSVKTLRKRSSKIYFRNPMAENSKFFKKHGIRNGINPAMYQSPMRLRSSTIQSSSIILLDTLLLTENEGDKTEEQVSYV
# rVMAT2 uptake, sequence (Q01827 whole entry): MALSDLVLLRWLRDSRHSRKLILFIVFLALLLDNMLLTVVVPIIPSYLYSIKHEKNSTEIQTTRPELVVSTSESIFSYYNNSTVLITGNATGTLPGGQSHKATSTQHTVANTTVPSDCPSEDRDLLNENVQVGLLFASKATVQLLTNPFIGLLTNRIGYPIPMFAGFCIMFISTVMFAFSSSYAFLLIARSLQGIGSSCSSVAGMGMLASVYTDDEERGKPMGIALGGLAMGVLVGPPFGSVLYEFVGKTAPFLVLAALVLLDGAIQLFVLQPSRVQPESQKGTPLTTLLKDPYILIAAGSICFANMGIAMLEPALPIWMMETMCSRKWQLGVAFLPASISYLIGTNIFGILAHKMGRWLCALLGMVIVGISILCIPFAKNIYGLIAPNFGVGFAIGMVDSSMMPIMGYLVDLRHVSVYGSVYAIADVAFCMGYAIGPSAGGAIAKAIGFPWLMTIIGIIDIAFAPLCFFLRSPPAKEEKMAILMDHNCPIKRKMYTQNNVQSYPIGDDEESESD
# hr PDE4D, sequence (Q08499 whole entry): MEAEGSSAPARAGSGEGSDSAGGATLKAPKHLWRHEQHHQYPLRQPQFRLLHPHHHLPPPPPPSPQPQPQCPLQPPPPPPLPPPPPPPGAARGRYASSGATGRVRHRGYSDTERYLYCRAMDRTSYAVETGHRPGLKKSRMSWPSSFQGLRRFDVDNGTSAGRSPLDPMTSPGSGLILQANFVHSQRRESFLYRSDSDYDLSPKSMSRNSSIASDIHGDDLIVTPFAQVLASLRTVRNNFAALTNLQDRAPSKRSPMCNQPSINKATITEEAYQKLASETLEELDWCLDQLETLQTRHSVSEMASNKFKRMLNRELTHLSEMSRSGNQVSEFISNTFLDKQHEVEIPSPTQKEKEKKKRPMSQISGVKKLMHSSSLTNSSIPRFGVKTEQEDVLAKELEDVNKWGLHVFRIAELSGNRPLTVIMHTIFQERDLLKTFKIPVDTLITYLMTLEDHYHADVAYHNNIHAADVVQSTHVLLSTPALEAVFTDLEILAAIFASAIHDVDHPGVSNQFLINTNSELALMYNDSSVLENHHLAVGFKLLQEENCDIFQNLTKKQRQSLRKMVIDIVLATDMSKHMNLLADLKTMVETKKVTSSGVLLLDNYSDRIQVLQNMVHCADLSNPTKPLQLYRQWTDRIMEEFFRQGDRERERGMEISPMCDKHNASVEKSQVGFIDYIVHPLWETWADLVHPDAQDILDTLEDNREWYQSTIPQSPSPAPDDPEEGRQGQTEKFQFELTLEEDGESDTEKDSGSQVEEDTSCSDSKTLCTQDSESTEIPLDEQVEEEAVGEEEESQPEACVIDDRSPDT
# hr Beta1, sequence (P08588 whole entry): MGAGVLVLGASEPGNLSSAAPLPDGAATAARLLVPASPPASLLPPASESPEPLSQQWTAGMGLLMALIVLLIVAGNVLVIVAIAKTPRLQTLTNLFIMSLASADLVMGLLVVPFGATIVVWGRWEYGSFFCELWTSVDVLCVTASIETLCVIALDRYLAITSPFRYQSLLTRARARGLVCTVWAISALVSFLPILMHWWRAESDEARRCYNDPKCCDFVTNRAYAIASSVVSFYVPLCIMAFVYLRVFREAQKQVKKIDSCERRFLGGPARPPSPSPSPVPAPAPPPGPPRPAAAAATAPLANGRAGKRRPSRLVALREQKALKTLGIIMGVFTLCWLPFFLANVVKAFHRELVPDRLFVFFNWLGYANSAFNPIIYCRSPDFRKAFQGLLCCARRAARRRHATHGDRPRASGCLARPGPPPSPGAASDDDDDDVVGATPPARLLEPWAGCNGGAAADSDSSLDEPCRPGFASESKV
# hr ERa ag, sequence (P03372 whole entry): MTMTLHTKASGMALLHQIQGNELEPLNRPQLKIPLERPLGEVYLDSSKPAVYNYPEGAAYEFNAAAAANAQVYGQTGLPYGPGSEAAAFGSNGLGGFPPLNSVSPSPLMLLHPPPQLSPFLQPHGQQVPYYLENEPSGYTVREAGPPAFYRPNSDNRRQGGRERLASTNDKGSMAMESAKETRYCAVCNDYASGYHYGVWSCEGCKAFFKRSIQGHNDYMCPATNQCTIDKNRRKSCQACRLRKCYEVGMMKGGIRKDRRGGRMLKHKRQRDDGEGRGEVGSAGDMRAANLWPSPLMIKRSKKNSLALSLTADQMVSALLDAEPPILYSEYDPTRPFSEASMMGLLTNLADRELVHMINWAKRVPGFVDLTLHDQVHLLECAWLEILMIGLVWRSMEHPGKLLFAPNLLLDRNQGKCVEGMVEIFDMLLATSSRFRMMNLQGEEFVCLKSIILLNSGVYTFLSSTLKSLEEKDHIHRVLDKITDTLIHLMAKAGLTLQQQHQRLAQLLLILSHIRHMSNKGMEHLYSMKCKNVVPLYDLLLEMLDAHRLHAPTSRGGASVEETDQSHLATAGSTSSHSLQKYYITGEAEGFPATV
# hr H3, sequence (Q9Y5N1 whole entry): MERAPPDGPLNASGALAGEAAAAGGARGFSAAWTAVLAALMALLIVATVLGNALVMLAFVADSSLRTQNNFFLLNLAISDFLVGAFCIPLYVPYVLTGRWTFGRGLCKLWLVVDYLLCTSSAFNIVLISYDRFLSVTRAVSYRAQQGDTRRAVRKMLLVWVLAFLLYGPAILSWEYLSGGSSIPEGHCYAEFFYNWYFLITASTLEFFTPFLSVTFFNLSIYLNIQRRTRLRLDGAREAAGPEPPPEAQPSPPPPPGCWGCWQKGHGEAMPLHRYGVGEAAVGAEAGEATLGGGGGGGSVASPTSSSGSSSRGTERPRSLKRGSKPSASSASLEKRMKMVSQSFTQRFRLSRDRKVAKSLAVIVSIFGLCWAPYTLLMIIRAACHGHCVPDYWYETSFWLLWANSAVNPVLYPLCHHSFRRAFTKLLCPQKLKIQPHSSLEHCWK
# hr OpM, sequence (P35372 whole entry): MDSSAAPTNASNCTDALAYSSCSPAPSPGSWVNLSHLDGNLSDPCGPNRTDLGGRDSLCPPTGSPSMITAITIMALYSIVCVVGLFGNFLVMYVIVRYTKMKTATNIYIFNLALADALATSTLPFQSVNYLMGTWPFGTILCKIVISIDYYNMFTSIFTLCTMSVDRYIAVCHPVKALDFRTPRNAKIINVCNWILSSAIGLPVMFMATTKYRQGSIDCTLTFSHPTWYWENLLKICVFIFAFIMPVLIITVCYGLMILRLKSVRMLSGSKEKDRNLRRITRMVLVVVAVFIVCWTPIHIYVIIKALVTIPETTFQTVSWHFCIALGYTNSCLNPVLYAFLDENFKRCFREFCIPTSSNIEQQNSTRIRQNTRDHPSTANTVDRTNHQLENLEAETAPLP
# hr 5-HT2A antag, sequence (P28223 whole entry): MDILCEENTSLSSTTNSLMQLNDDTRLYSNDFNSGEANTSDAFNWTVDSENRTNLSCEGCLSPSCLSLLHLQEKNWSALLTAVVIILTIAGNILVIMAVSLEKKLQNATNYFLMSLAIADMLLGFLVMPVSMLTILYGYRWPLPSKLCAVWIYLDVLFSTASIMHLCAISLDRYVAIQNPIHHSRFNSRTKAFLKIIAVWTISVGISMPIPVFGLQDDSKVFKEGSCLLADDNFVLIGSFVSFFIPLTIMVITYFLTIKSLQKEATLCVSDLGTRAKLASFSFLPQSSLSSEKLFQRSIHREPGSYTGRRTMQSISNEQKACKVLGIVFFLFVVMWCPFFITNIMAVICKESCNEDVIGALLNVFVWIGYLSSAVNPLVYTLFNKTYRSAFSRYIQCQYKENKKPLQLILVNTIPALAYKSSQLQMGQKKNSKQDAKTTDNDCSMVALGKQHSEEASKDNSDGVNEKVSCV
structure (smiles),measurement,setting,value
"Cc1nc(C)c(C(=O)Nc2ccc(F)c(-c3nc4ncc(-c5ncccc5C)cn4n3)c2)o1 [compound 1, N-(4-Fluoro-3-(6-(3-methylpyridin-2-yl)-[1,2,4]triazolo[1,5-a]pyrimidin-2-yl)phenyl)-2,4-dimethyloxazole-5-carboxamide]",EC50/IC50,hr PDE4D; hr PDE4D,> 30 µM
same,inhibition at 10 µM,hr PDE4D; read-out: % inh/act @ 10 µM,35%
same,inhibition at 30 µM,hr PDE4D; read-out: % inh/act @ 30 µM,49%
same,inhibition at 10 µM,PXR,0%
same,EC50/IC50,hr PXR ag,> 30 µM
same,metabolism by dog recombinant CYP enzymes,CYP2D15,metabolized to 8 predominantly by CYP2D15
same,EC50/IC50,hr 5-HT1A ag; hr 5-HT1A ag,> 30 µM
same,inhibition at 10 µM,hr 5-HT1A ag; read-out: % inh/act @ 10 µM,1%
same,inhibition at 30 µM,hr 5-HT1A ag; read-out: % inh/act @ 30 µM,1%
same,EC50/IC50,hr 5-HT2A antag; hr 5-HT2A antag,> 10 µM
same,inhibition at 10 µM,hr 5-HT2A antag; read-out: % inh/act @ 10 µM,34%
same,EC50/IC50,hr ERa ag; hr ERa ag,> 30 µM
same,inhibition at 10 µM,hr ERa ag; read-out: % inh/act @ 10 µM,7%
same,inhibition at 30 µM,hr ERa ag; read-out: % inh/act @ 30 µM,15%
same,EC50/IC50,hr OpM; hr OpM,> 30 µM
same,inhibition at 10 µM,hr OpM; read-out: % inh/act @ 10 µM,18%
same,inhibition at 30 µM,hr OpM; read-out: % inh/act @ 30 µM,19%
same,EC50/IC50,rVMAT2 uptake; rVMAT2 uptake,3.9 µM
same,inhibition at 10 µM,rVMAT2 uptake; read-out: % inh/act @ 10 µM,64%
same,inhibition at 30 µM,rVMAT2 uptake; read-out: % inh/act @ 30 µM,78%
same,inhibition at 10 µM,rVMAT2 uptake; read-out: VMAT2 inhibition,61%
same,EC50/IC50,hr Beta1; hr Beta1,> 30 µM
same,inhibition at 10 µM,hr Beta1; read-out: % inh/act @ 10 µM,6%
same,inhibition at 30 µM,hr Beta1; read-out: % inh/act @ 30 µM,10%
same,EC50/IC50,hr TP antag; hr TP antag,> 30 µM
same,inhibition at 10 µM,hr TP antag; read-out: % inh/act @ 10 µM,14%
same,inhibition at 30 µM,hr TP antag; read-out: % inh/act @ 30 µM,28%
same,IC50,[1],0.04 µM
same,IC50,[2],0.05 µM
same,inhibition at 10 µM,BSEP,28%
same,inhibition at 30 µM,BSEP,45%
same,EC50/IC50,hr 5-HT2B antag; hr 5-HT2B antag,> 30 µM
same,inhibition at 10 µM,hr 5-HT2B antag; read-out: % inh/act @ 10 µM,22%
same,inhibition at 30 µM,hr 5-HT2B antag; read-out: % inh/act @ 30 µM,24%
same,"AMES, risk of mutagenicity",in vitro AMES,did not indicate a risk
same,EC50/IC50,hr H3; hr H3,> 30 µM
same,inhibition at 10 µM,hr H3; read-out: % inh/act @ 10 µM,9%
same,inhibition at 30 µM,hr H3; read-out: % inh/act @ 30 µM,14%
same,DN AUC PO,[3],7.5 µM·h
same,DN Cmax PO,[3],800 nM
same,EC50/IC50,hr D2; hr D2,> 30 µM
same,inhibition at 10 µM,hr D2; read-out: % inh/act @ 10 µM,7%
same,inhibition at 30 µM,hr D2; read-out: % inh/act @ 30 µM,15%
